Measured values as given in the NIST ThermoML archive (doi:10.1021/je3000876).

Key:
[1] = for viscosity / mass density: 101.33 kPa, Liquid; for viscosity: Cone and plate viscometry; for mass density: Vibrating tube method
[2] = refractive index (Na D-line) (dimensionless); conditions: 101.33 kPa, Liquid, Standard Abbe refractometry

NC(=O)Cn1cc[n+](CCCCn2cc[n+](CC(N)=O)c2)c1.O=S(=O)([N-]S(=O)(=O)C(F)(F)F)C(F)(F)F.O=S(=O)([N-]S(=O)(=O)C(F)(F)F)C(F)(F)F
Conditions	mass density, [1] [kg/m3]	refractive index, [2]	viscosity, [1] [mPa·s]
298.15 K	1590.17	1.4546	8689
303.15 K	1585.41	1.4532	4730
308.15 K	1580.62	1.4518	3285
313.15 K	1575.98	1.4504	2365
318.15 K	1572.04	1.4491	1824
323.15 K	1567.22	1.4477	1517
328.15 K	1562.31	1.4464	1323
333.15 K	1557.66	1.4451	1221
338.15 K	1552.61	1.4439	1129
343.15 K	1548.03	1.443	1098

Conditions	Glass transition temperature [°C]
[1], Glass, DTA	-40
